# From ChEMBL document CHEMBL2074549, “Regulation of 2-acetylaminofluorene-and 3-methylcholanthrene--mediated induction of multidrug resistance and cytochrome P450IA gene family expression in primary hepatocyte cultures and rat liver” (Mol Carcinog, 1991)
# Experiments:
# [1] = target: Multidrug resistance protein 1a (Rattus norvegicus) (UniProt Q6PSM0); test: TP_TRANSPORTER: Western blot, primary hepatocytes; assay type: functional, cell-based; conditions: Hepatocyte
# [2] = target: ATP-dependent translocase ABCB1 (Rattus norvegicus, UniProt P43245); test: TP_TRANSPORTER: Northern blot from primary hepatocytes; assay type: functional, Hepatocyte
# Sequence of ATP-dependent translocase ABCB1 (P43245 whole entry): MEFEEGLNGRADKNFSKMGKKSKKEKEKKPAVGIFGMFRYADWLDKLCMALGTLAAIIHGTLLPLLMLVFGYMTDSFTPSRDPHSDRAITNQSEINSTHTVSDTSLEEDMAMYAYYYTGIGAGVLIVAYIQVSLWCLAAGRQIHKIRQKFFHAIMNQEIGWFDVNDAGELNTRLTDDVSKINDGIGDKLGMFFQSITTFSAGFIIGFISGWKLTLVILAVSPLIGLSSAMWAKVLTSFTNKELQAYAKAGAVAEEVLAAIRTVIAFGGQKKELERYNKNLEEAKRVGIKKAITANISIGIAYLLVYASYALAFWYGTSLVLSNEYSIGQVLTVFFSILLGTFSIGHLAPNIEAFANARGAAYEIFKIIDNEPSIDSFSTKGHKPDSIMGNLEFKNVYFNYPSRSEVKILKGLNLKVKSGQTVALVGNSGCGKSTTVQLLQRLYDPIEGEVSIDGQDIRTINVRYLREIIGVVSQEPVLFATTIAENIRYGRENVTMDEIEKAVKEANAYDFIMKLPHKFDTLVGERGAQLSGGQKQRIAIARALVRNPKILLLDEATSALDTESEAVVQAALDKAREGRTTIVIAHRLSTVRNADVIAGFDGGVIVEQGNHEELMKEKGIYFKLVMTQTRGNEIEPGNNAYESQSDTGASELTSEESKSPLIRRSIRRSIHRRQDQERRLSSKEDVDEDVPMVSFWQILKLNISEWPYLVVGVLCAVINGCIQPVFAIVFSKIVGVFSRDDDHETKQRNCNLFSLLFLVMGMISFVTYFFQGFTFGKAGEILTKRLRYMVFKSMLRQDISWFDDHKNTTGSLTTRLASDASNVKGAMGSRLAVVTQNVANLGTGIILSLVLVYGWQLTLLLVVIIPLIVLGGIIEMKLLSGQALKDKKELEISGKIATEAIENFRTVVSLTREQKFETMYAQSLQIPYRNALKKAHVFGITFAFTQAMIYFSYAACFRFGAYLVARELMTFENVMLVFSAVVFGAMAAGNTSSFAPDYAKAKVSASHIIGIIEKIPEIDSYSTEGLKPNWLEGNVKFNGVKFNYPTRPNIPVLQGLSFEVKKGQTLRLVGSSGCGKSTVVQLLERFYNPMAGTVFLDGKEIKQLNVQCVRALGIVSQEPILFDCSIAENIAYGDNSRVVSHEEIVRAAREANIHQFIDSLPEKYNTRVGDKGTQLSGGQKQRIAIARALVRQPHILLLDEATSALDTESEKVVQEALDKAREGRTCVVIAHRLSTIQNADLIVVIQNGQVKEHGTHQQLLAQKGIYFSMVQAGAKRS
# Sequence of Multidrug resistance protein 1a (Rattus norvegicus) (Q6PSM0 as listed by the source): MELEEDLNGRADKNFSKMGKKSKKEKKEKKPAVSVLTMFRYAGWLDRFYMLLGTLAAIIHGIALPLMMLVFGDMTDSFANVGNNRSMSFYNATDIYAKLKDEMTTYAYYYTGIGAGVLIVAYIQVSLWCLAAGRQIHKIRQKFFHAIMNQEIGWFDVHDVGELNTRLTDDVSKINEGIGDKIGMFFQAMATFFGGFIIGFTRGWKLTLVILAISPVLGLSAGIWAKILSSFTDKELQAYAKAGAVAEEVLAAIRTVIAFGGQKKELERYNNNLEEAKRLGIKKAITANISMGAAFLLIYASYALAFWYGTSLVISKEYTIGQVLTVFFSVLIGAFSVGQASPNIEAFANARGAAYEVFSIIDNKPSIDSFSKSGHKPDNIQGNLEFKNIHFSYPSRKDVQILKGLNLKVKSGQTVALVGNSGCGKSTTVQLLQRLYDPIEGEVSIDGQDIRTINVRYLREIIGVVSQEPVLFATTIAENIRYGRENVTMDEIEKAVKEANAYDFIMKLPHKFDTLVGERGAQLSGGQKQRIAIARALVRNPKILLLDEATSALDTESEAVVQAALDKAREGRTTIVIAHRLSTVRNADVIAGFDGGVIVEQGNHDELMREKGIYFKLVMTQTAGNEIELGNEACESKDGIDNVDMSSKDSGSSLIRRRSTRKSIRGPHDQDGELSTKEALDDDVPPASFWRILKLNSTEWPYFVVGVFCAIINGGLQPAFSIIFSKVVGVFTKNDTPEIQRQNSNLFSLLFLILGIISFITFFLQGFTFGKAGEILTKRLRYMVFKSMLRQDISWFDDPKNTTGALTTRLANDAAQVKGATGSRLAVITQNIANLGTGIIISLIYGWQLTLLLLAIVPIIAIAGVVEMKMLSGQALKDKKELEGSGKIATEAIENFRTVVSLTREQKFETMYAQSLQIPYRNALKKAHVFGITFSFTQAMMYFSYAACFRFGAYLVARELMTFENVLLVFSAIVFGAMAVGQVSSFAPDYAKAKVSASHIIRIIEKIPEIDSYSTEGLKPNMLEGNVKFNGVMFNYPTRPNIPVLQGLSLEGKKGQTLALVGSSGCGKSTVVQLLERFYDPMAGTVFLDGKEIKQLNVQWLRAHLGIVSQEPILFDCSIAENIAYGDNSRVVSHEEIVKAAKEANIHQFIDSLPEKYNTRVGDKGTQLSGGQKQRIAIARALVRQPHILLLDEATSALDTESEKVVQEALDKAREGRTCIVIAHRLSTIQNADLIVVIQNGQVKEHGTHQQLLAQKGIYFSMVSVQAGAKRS
Compound,Activity [1],Activity [2]
CC(=O)Nc1ccc2c(c1)Cc1ccccc1-2,inducer [+],
Cc1ccc2cc3c(ccc4ccccc43)c3c2c1CC3 [3-METHYLCHOLANTHRENE],inducer [+],inducer [+]
